Laboratory results reported in ChEMBL document CHEMBL4673357, “Antimicrobial Furancarboxylic Acids from a Penicillium sp” (2020).

Assays:
Type in all cases: functional
Escherichia coli = experiment: Antibacterial activity against Escherichia coli ATCC 35218 assessed as reduction in microbial growth after 18 hrs by microbroth dilution method
Candida albicans = experiment: Antifungal activity against Candida albicans ATCC 10231 assessed as reduction in microbial growth after 18 hrs by microbroth dilution method
Staphylococcus aureus = experiment: Antibacterial activity against Staphylococcus aureus ATCC 25923 assessed as reduction in microbial growth after 18 hrs by microbroth dilution method

| Compound | MIC (Escherichia coli) [µg/mL] | MIC (Candida albicans) [µg/mL] | MIC (Staphylococcus aureus) [µg/mL] |
| --- | --- | --- | --- |
| COC(=O)C1=C(c2ccsc2C)O[C@](C)(/C=C/CC[C@@H](C)O)C1=O | 3.5 | 7 | 3.5 |
| COC(=O)C1=C(C)O[C@](C)(/C=C/CC[C@@H](C)O)C1=O | 5.4 | 5.4 | 2.7 |
| COC(=O)C1=C(C)O[C@](C)(/C=C/CC[C@H](C)O)C1=O | 5.4 | 5.4 | 2.7 |
| COC(=O)C1=C(c2ccsc2C)O[C@](C)(/C=C/C=C/[C@H](C)O)C1=O | 7 | 7 | 3.5 |
| COC(=O)C1=C(c2ccsc2C)O[C@](C)(/C=C/C=C/[C@@H](C)O)C1=O | 7 | 7 | 3.5 |
| COC(=O)C1=C(c2ccsc2C)O[C@](C)(/C=C/CC[C@H](C)O)C1=O | 3.5 | 7 | 3.5 |
| CCCC1=C(C(=O)OC)C(=O)[C@@](C)(/C=C/CC[C@H](C)O)O1 | 3 | 5.9 | 3 |
| C[C@@H]1[C@H](O)[C@@H](C)/C=C/C=C/C=C/C=C/C=C/C=C/C=C/[C@H](O[C@@H]2O[C@H](C)[C@@H](O)[C@H](N)[C@@H]2O)C[C@@H]2O[C@](O)(C[C@@H](O)C[C@@H](O)[C@H](O)CC[C@@H](O)C[C@@H](O)CC(=O)O[C@H]1C)C[C@H](O)[C@H]2C(=O)O [AMPHOTERICIN B] |  | 0.1 |  |

Further lines, results first:

| MIC (Escherichia coli) [µg/mL] | MIC (Candida albicans) [µg/mL] | MIC (Staphylococcus aureus) [µg/mL] | Compound |
| --- | --- | --- | --- |
| 2.9 | 4.4 | 2.9 | CCCC1=C(C(=O)OC)C(=O)[C@@](C)(/C=C/C=C/[C@H](C)O)O1 |
| 3 | 5.9 | 3 | CCCC1=C(C(=O)OC)C(=O)[C@@](C)(/C=C/CC[C@@H](C)O)O1 |
| 0.9 | 3.8 | 1.9 | CC/C=C/C=C/[C@@]1(C)OC(c2cc(C(=O)O)sc2C)=C(C(=O)OC)C1=O |
| 1.7 | 3.3 | 1.7 | CC/C=C/C=C/[C@@]1(C)OC(c2ccsc2C)=C(C(=O)OC)C1=O |
| 2.9 | 4.4 | 2.9 | CCCC1=C(C(=O)OC)C(=O)[C@@](C)(/C=C/C=C/[C@@H](C)O)O1 |
| 2.3 |  | 0.1 | CN[C@@H]1[C@H](O[C@H]2[C@H](O[C@H]3[C@H](O)[C@@H](O)[C@H](N=C(N)N)[C@@H](O)[C@@H]3N=C(N)N)O[C@@H](C)[C@]2(O)C=O)O[C@@H](CO)[C@H](O)[C@H]1O [STREPTOMYCIN] |
